Results reported in patent publication US4460765A, “Enzyme inhibitor produced by cultivation of streptomyces microorganisms” (Sankyo Company Limited, priority 1979, dated 1984).

Columns and labels:
[1] = target: low Km cAMP PDE, rat brain; assay: cAMP PDE inhibition, low Km enzyme from rat brain; format: biochemical; details: cAMP concentration 0.14 μM; for IC50: read-out: 50% inhibitory value (I50)
Method: (§1) The inhibitory activity of the compounds of the invention (or of compositions, e.g. culture broths, containing them) may be assayed by the method of Pichard and Thun [Journal of Biological Chemistry, 251, 5726-5737 (1976)], using a crude enzyme solution derived from rat brains as the cAMP PDE. In this method, ^14 C-labelled cAMP is used as the substrate and is reacted at 30° C. for 20 minutes with 2-5 μl of the compound or composition under test, 20 μl of a snake venom and 40 μl of the crude enzyme solution in a 0.2M tris-HCl buffer (pH 8.0). The tris-HCl buffer is a mixture of tris(hydroxymethyl)aminomethane and hydrochloric acid. After completion of the reaction, the reaction mixture is treated with an Amberlite (Trade Mark) IRP-58 resin. From the residual radioactivity of the adenosine in the product, the inhibitory activity of the compound or composition against the cAMP PDE can be calculated as a percentage.
(§2) The inhibitory activity of griseolic acid against cAMP PDE in terms of its 50% inhibitory value (I50) are shown in Table 5 against cAMP PDE from a variety of sources having either a high or a low Michaelis constant (Km). The results are reported as μmoles (μM).

[2] = test system: low Km cAMP PDE, rat aorta; assay: cAMP PDE inhibition, low Km enzyme from rat aorta; format: biochemical; details: cAMP concentration 0.14 μM, read-out: 50% inhibitory value (I50)
Method: as §1, §2

[3] = test system: high Km cAMP PDE, rat platelets; assay: cAMP PDE inhibition, high Km enzyme from rat platelets; format: biochemical; details: cAMP concentration 100 μM, read-out: 50% inhibitory value (I50)
Method: as §1, §2

[4] = target: high Km cAMP PDE, rat brain; assay: cAMP PDE inhibition, high Km enzyme from rat brain; format: biochemical; details: cAMP concentration 100 μM, read-out: 50% inhibitory value (I50)
Method: as §1, §2

[5] = target: high Km cAMP PDE, rat kidney; assay: cAMP PDE inhibition, high Km enzyme from rat kidney; format: biochemical; details: cAMP concentration 100 μM, read-out: 50% inhibitory value (I50)
Method: as §1, §2

[6] = target: T1, low Km cAMP PDE, rat platelets (Rattus norvegicus, UniProt Q62865); assay: cAMP PDE inhibition, low Km enzyme from rat platelets; format: biochemical; details: cAMP concentration 0.14 μM, read-out: 50% inhibitory value (I50)
T1 construct: from tissue; host or cells: rat platelets
T1 sequence (Q62865 1-1141): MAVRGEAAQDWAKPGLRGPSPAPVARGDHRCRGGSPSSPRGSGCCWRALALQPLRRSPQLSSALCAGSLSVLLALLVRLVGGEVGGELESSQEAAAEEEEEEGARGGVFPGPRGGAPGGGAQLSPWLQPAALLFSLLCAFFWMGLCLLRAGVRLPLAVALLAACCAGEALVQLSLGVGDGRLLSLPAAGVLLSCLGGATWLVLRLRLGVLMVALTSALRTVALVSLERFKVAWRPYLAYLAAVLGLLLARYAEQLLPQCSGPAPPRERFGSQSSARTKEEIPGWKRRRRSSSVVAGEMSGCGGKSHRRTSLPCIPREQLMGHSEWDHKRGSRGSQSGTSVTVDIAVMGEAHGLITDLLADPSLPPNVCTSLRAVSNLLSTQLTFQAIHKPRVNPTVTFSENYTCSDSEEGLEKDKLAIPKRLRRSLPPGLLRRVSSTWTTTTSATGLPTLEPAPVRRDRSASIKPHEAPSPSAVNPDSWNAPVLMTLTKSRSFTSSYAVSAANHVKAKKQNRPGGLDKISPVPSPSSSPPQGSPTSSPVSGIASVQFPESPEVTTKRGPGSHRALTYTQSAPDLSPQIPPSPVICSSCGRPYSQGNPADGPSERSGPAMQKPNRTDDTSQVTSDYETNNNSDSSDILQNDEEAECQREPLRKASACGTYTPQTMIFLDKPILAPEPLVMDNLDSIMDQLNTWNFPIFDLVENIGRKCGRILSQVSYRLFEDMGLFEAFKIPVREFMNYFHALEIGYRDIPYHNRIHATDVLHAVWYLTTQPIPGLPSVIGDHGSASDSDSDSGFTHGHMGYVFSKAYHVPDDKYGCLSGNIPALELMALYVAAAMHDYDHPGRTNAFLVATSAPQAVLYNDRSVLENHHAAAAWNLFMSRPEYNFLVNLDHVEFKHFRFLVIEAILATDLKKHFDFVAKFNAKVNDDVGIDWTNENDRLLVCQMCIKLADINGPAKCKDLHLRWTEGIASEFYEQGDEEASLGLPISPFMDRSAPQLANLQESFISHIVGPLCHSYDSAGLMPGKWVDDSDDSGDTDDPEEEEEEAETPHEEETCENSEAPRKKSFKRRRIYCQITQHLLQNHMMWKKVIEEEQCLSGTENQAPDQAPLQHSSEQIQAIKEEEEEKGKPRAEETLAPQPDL
Method: as §1, §2

[7] = target: low Km cAMP PDE, rat kidney; assay: cAMP PDE inhibition, low Km enzyme from rat kidney; format: biochemical; details: cAMP concentration 0.14 μM, read-out: 50% inhibitory value (I50)
Method: as §1, §2

[8] = test system: high Km cAMP PDE, rat aorta; assay: cAMP PDE inhibition, high Km enzyme from rat aorta; format: biochemical; details: cAMP concentration 100 μM, read-out: 50% inhibitory value (I50)
Method: as §1, §2

[9] = target: high Km cAMP PDE, rat heart; assay: cAMP PDE inhibition, high Km enzyme from rat heart; format: biochemical; details: cAMP concentration 100 μM, read-out: 50% inhibitory value (I50)
Method: as §1, §2

Hela S-3 strain cells = assay: basic tests on cytotoxicity; format: cell-based, mouse; details: even at concentrations of 100 μg/ml
[10] = target: low Km cAMP PDE, rat heart; assay: cAMP PDE inhibition, low Km enzyme from rat heart; format: biochemical; details: cAMP concentration 0.14 μM, read-out: 50% inhibitory value (I50)
Method: as §1, §2

[11] = water solubility (qualitative); format: physicochemical

IC50 [2] [nM] | IC50 [3] [µM] | IC50 [4] [nM] | IC50 [5] [nM] | IC50 [6] [nM] | IC50 [7] [nM] | inhibitory activity relative to papaverine (times stronger) [1] | IC50 [8] [nM] | IC50 [9] [nM] | IC50 [10] [nM] | water solubility [11] | SMILES | IC50 [1] [nM] | inhibition of cell growth (Hela S-3 strain cells)
 |  |  |  |  |  |  |  |  |  |  | COc1ccc(Cc2nccc3cc(OC)c(OC)cc23)cc1OC [Papaverine, reference compound] | 3500 | 
31 | 8 | 800 | 580 | 41 | 120 | about 20 times | 510 | 340 | 36 | water-soluble | Nc1ncnc2c1ncn2C1OC2=C(C(=O)O)C(C(O)C(=O)O)OC2C1O (centres unmarked) [griseolic acid] | 160 | no inhibition of cell growth
